Measurements taken from PMC5481773, “Structural insights into the function of ZRANB3 in replication stress response” (Nature Communications, 2017).

Legend:
ZRANB3 = ZRANB3 nuclease assay with non-hydrolysable ATP analogues; format: biochemical, Human; conditions: wild-type ZRANB3, fluorescently labelled DNA substrate, native PAGE (Fig. 3d)
Excerpt: Figure 3 Characterisation of the ZRANB3 HNH active site. (a) Overlay of the T4 endonuclease VII (yellow) and the ZRANB3 HNH (white) structures. […] (b) Overlay of the T4 endonuclease VII (yellow, labels in italics) and the ZRANB3 HNH (white) structures. Mg^2+ ion in T4 endonuclease is shown as a purple sphere. His1021, Asp1020 and His1045 in the HNH structure overlap with the active site residues of T4 endonuclease VII. (c) Nuclease assay with the wild-type and mutant ZRANB3 proteins in the presence and absence of ATP. Reactions were analysed by native poly-acrylamide gel electrophoresis. Indicated are mobilities of the fluorescently labelled DNA substrate and product. (d) Nuclease assay with non-hydrolysable ATP homologues. Shown are controls with the wild-type ZRANB3 and the ATPase dead K65R mutant in the presence of ATP.
Oligonucleotides used in the nuclease assays (5′-[…]-[…]-3′ and Cy3 5′-end-labelled 5′-[…]-[…]-3′) were incubated in 10 mM Tris-HCl pH 7.5, 50 mM NaCl for 3 min at 94 °C, after which the reactions were allowed to gradually cool down.
The nuclease assays with ZRANB3 was performed essentially as described in ref. [9]. Briefly, reaction mixtures containing the indicated nuclease (200 nM) and fluorescently labelled DNA substrate (10 nM) in 10 μl of reaction buffer (50 mM Tris-HCl; 50 mM NaCl; 5 mM MgCl2; 2 mM ATP (Sigma); pH 7.5) were incubated at 30 °C for 60 min. The reactions were stopped by incubation with 0.1% SDS and 4 mg ml^−1 of proteinase K at 30 °C for 45 min. The reactions were then mixed with sucrose (10% final concentration) and resolved in a 10% polyacrylamide gel in 0.5 × TBE buffer (45 mM Tris-borate, 1 mM EDTA; pH 7.5). The fluorescent DNA species were visualized and quantified using Pharos Mx imager and Quantity one software (BioRad).

PCNA = PCNA pull-down with biotinylated PIP box and APIM motif peptides; format: binding; conditions: biotinylated peptides on streptavidin beads, recombinant PCNA, Western blotting with PCNA antibody (Fig. 4c)
Description: Figure 4 Stimulation of the ZRANB3 nuclease activity by PCNA. (a) Stimulation of FEN1 and ZRANB3 nuclease activities by PCNA. FEN1 or ZRANB3 nucleases were incubated with the DNA substrate and increasing concentrations of PCNA (0.375, 0.75, 1.5 and 3 μM), in the presence (ZRANB3) or absence (FEN1) of ATP. (b) Domain structure of ZRANB3. Conservation of the PIP box and the APIM motif residues among ZRANB3 proteins are shown in the alignments below. Mutated conserved residues in the PIP box and the APIM motif are indicated by arrows. (c) Interactions of the ZRANB3 PIP box and APIM motif with PCNA. Biotinylated PIP box and APIM motif peptides were bound to streptavidin beads and incubated with recombinant PCNA. The interaction was assayed by Western blotting with PCNA antibody. […] (d) Effect of PCNA (0.375, 0.75, 1.5 and 3 μM) on ZRANB3 nuclease activity assayed with the wild-type ZRANB3 and ZRANB3 PCNA binding mutants (ZRANB3-PIP*, ZRANB3-ΔAPIM and ZRANB3-PIP*ΔAPIM). (e) Quantification of nuclease activities in the presence of increasing concentrations of PCNA. […]
Biotinylated PIP-box and APIM-motif peptides were synthesized by Genscript. […] The beads were subsequently washed with the same buffer to remove unbound PCNA, after which they were boiled in the SDS-PAGE loading buffer, and analysed by anti-PCNA Western blotting (ab18197, 1:1,000 dilution).

| Compound | ZRANB3 endonuclease activity on substitution of ATP by non-hydrolysable ATP analogue (ZRANB3) | Interaction with PCNA (pull-down) (PCNA) |
| --- | --- | --- |
| Nc1ncnc2c1ncn2[C@@H]1O[C@H](COP(=O)(O)OP(=O)(O)CP(=O)(O)O)[C@@H](O)[C@H]1O [AMP-PCP] | complete loss of activity |  |
| APIM*: biotinylated ZRANB3 APIM motif peptide with F1075A mutation (pull-down) |  | abrogated the interaction with PCNA |
| Nc1ncnc2c1ncn2[C@@H]1O[C@H](COP(=O)(O)OP(=O)(O)NP(=O)(O)O)[C@@H](O)[C@H]1O [AMP-PNP] | complete loss of activity |  |
| Nc1ncnc2c1ncn2[C@@H]1O[C@H](CO[P@](=O)(O)O[P@](=O)(O)O[P@@](=O)(O)S)[C@@H](O)[C@H]1O [ATPγS] | complete loss of activity |  |
